# According to article PMC11971462, “Generation and validation of a novel multitarget small molecule in glioblastoma” (Cell Death & Disease, 2025):
# Tests used:
# [1] = tested on: U87-MG tumors; assay: Immunohistochemistry of subcutaneous tumors; assay type: in vivo, athymic nude-Foxn1nu mice
# Experimental: Subcutaneous tumors were extracted, fixed with 4% formaldehyde for 48 h and embedded in paraffin. Tumor sections were obtained and stainings for acetyl H3 (9649, Cell Signaling), acetylated α-tubulin (ab179484, abcam), PCNA (Ab18197, abcam) and Cleaved Caspase 3 (AF835, R&D Systems) were performed. ZEISS Axioscan 7 slide scanner was used to capture images of the stainings and analyses were done using Qupath.
# [2] = biological target: T1, recombinant hAChE (Homo sapiens, UniProt P22303); assay: AChE inhibition, Ellman's colorimetric method; assay type: biochemical; settings: 10 µM compound; read-out: AChE inhibition percentage
# T1 construct: purchased Sigma-Aldrich
# T1 sequence (P22303 32-614): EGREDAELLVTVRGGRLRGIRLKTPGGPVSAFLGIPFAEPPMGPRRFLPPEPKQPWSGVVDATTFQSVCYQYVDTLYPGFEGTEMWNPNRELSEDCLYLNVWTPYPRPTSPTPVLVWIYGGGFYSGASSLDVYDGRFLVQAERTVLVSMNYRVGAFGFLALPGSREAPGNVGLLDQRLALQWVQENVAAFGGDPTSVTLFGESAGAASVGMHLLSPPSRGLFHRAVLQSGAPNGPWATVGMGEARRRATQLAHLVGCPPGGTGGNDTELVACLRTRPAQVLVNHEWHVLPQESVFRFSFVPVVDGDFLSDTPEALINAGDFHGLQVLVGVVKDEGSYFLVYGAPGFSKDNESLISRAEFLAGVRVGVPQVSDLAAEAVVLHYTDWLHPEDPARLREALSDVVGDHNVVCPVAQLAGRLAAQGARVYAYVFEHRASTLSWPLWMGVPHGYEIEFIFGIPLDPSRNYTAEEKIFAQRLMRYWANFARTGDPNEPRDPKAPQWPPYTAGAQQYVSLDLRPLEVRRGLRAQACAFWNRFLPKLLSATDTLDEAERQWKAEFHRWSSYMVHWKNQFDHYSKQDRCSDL
# Experimental: Similarly, Ellman’s colorimetric method was used to study the inhibitory capacity of the compound on ChEs. Enzyme solution containing either recombinant hAChE (Sigma-Aldrich) at 0.5 U/mL or hBChE (Sigma-Aldrich) at 0.25 U/mL was incubated with inhibitor solution containing 10 µM of DDI199 or reference compound and 0.3 mM of DTNB (Sigma-Aldrich) for 20 minutes at 37 °C. […] In addition, kinetic of enzyme inhibition was also studied by repeating the same protocol and using five different concentrations of the substrate and four different concentrations of the inhibitor. Results were represented in a Lineweaver-Burk plot using GraphPad Prism software, and the constant of inhibition (Ki) was estimated from the point at which the line cuts the x-axis at the secondary plot.
# [3] = tested on: GNS166 cells; assay: EdU cell proliferation assay; assay type: cell-based, human; settings: GNS166, 5 µM
# Experimental: Click-iT™ EdU Cell Proliferation Kit for Imaging (Invitrogen) was used according to the manufacturer’s instructions. Briefly, GNS166 cells were seeded and maintained overnight before DDI199 treatment. After 48 h, fresh culture medium containing 10 μM of EdU was added for 24 h and then, cells were fixed with 4% paraformaldehyde. Axio Observer 7 epifluorescence microscope was used to take pictures, which were later quantified in Qupath.
# [4] = tested on: U87-MG tumor cells; assay: Re-injection (regrowth) of cells from treated tumors; assay type: in vivo, athymic nude-Foxn1nu mice
# Experimental: For tumor growth experiments, 5 × 10^5 U87-MG cells were subcutaneously injected into two bottom flanks of athymic nude-Foxn1^nu mice, and once tumors reached a size of 25-50 mm^3, mice were sorted into groups taking into account gender and tumor size. Afterwards, mice were intratumorally treated with vehicle, SAHA 100 µM or DDI199 100 µM following a schedule of 5 days on and 2 days off. In combined treatment, mice were treated intraperitoneally with 0.5 mg/Kg of TMZ for 5 days and intratumorally following a schedule of 5 days on and 2 days off with vehicle, SAHA 100 µM or DDI199 100 µM. After 4 weeks of treatment, some mice were kept for washout experiment, while the rest were sacrificed and tumors were extracted for immunohistochemistry and to disaggregate for reinjection and oncosphere formation studies. For reinjection assays, 1.5 × 10^5 cells were subcutaneously injected and tumor size was periodically measured. Once tumors reached end-point criteria, they were extracted for immunohistochemical analysis. An external caliper was used for tumor size measurement and the tumor volume was estimated using the formula V = L · W^2 · 0.5 (where L is tumor length and W is the tumor width).
smiles,measurement,setting,value
C#CCN(Cc1cc2cc(OCCCN3CCCCC3)ccc2n1S(=O)(=O)c1ccccc1)C(=O)CCCCCCC(=O)NO [DDI199],acetyl H3 immunohistochemical staining,"[1]; tumors at day 34, 100 µM intratumoral",83%
same,acetyl α-tubulin immunohistochemical staining,"[1]; tumors at day 34, control 0.25",0.32
same,Cleaved Caspase 3 positive cells,"[1]; tumors at day 34, control 0.7%",1.5%
same,PCNA positive cells,"[1]; tumors at day 34, control 70%",64%
same,inhibition at 10 µM,[2],25%
same,EdU positive cells,[3],almost blocking completely
same,"Tumors reforming after re-injection, combined with TMZ",[4]; cells from TMZ + DDI199 treated tumors,1 tumor out of 3
same,Reduction of final tumor weight after re-injection versus control,[4]; cells from treated tumors,~70%
same,Reduction of tumor volume after re-injection versus control,[4]; cells from treated tumors,60%
same,Mean tumor volume after re-injection,"[4]; cells from treated tumors, controls over 500 mm^3",200 mm^3
